Literature values in US20100221818A1, “Device for the extemporaneous preparation of active preparations” (ALAXIA, priority 2009, published 2010).

Conditions: in the absence of peroxidase and/or of hydrogen peroxide

## N#CSO [hypothiocyanite]
  half-life: approximately 24 hours
